The molecules below were run against recombinant human 15-PGDH (Homo sapiens (Human), UniProt P15428) (assay: 15-PGDH enzyme inhibition test). Conditions: 4 nM recombinant human 15-PGDH, 30 μM PGE2, 1 mM NAD+, fluorescence 340/440 nm after 60 min.
Sequence of recombinant human 15-PGDH (P15428 whole entry): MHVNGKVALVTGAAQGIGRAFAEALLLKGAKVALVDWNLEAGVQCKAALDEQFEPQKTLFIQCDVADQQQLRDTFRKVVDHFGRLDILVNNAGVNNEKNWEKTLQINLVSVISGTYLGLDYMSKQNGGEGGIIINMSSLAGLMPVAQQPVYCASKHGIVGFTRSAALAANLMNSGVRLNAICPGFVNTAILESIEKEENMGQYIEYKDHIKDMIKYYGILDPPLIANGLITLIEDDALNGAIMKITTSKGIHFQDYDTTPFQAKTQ
Type: biochemical
Experimental: 15-PGDH Enzyme Inhibition Test
Test compounds and 4 nM recombinant human 15-PGDH (R&D systems) in 50 mM Tris-HCl (pH 8.0) containing 0.01% TWEEN 20 (Sigma) and 0.01% bovine gamma globulin (Sigma) were put into 384 Flat Bottom Black plates (Corning, 3820) and allowed to stand for 12 minutes at room temperature. Then, 30 μM PGE2 (Cayman chemical) and 1 mM NAD^+ (Sigma) were added to start reaction. Sixty minutes after the start of reaction, signals were measured at an excitation wavelength of 340 nm and a fluorescence emission wavelength of 440 nm using Synergy 2 (BioTeck). The intensity of the fluorescent signal obtained when an assay buffer was added in place of the test compounds and NAD^+ was defined as 100% and that obtained with the addition of NAD^+ was defined as 0%.
An IC50 of less than 3 nM was found for `CN1Cc2cc(-c3ccnc4cc(C(=O)N5CCCCC5)ccc34)ccc2C1=O` [compound 98] in this work.
An IC50 of 3 to 10 nM was found for `COc1nccc2c1CCN(c1cccc3cc(C(=O)N4CCCCC4)ccc13)C2` [compound 22] in this work.
An IC50 of less than 3 nM was found for `O=C(c1ccc2c(N3CCc4ncccc4C3)cccc2c1)N1CCC[C@H](C(F)(F)F)C1` [compound 4] in this work.
An IC50 of less than 3 nM was found for `Cn1nc2n(c1=O)CCN(c1cccc3cc(C(=O)N4CCCC5(CC5)C4)ccc13)C2` [compound 92] in this work.
An IC50 of 3 to 10 nM was found for `Cn1nc2n(c1=O)CCN(c1ncc(F)c3cc(C(=O)N4CCC(F)(F)CC4)ccc13)C2` [compound 20] in this work.
An IC50 of 3 to 10 nM was found for `O=C(c1ccc2c(N3CCN4C(=O)CCC4C3)cccc2c1)N1CCCCC1` (centres unmarked) [compound 12] in this work.
An IC50 of less than 3 nM was found for `Cn1nc2cc(-c3cccc4cc(C(=O)N5CCC(F)(F)CC5)ccc34)ccn2c1=O` [compound 65] in this work.
An IC50 of 3 to 10 nM was found for `CNC(=O)c1ccc(-c2cccc3cc(C(=O)N4CCC(F)(F)CC4)ccc23)cc1F` [compound 56] in this work.
An IC50 of less than 3 nM was found for `O=C(c1ccc2c(N3CCc4ncccc4C3)cccc2c1)N1CCCC2(CC2)C1` [compound 105] in this work.
An IC50 of less than 3 nM was found for `C[C@@H]1CCCN(C(=O)c2ccc3c(N4CCn5c(nn(C)c5=O)C4)cccc3c2)C1` [compound 34] in this work.
An IC50 of less than 3 nM was found for `O=C(O)c1ncc(-c2cccc3cc(C(=O)N4CCC(F)(F)CC4)ccc23)cc1F` [compound 130] in this work.
An IC50 of 3 to 10 nM was found for `O=C(c1ccc2c(-c3ccc4c(c3)CN(CC3(C(F)(F)F)CC3)C4=O)cccc2c1)N1CCC(F)(F)CC1` [compound 113] in this work.
An IC50 of less than 3 nM was found for `Cc1nc2n(n1)CCN(c1cccc3cc(C(=O)N4CCCCC4)ccc13)C2` [compound 21] in this work.
An IC50 of less than 3 nM was found for `O=C(c1ccc2c(-c3ccc4c(=O)[nH]ccc4c3)cccc2c1)N1CCCCC1` [compound 64] in this work.
An IC50 of less than 3 nM was found for `O=C(c1ccc2c(-c3ccc4c(=O)[nH]ccc4c3)c(F)ccc2c1)N1CCC(F)(F)CC1` [compound 49] in this work.
An IC50 of less than 3 nM was found for `CN1Cc2cc(-c3ccc4ccc(C(=O)N5CCC(F)(F)CC5)cc4c3)ccc2C1=O` [compound 138] in this work.
An IC50 of no less than 10 nM was found for `Cn1ccc2cc(-c3cccc4cc(C(=O)N5CCC(F)(F)CC5)cnc34)ncc2c1=O` [compound 144] in this work.
An IC50 of 3 to 10 nM was found for `CC1CC2CN(c3cccc4cc(C(=O)N5CCCCC5)ccc34)CCN2C1=O` (centres unmarked) [compound 28] in this work.
An IC50 of less than 3 nM was found for `CN1C(=O)c2ccc(-c3cccc4cc(C(=O)N5CCC(F)(F)CC5)ccc34)cc2C1(C)C` [compound 27] in this work.
An IC50 of less than 3 nM was found for `O=C(c1ccc2c(-c3ccc4c(=O)[nH]ncc4c3)cccc2c1)N1CC=CCC1` [compound 123] in this work.
An IC50 of less than 3 nM was found for `Cn1cnc2cc(-c3cccc4cc(C(=O)N5CCC(F)(F)CC5)cnc34)ccc2c1=O` [compound 164] in this work.
An IC50 of less than 3 nM was found for `C[C@H]1CCCN(C(=O)c2ccc3c(N4CCc5c(cc[nH]c5=O)C4)cccc3c2)C1` [compound 60] in this work.
An IC50 of less than 3 nM was found for `C[C@H]1CCCN(C(=O)c2ccc3c(N4CCc5ncccc5C4)cccc3c2)C1` [compound 2] in this work.
An IC50 of less than 3 nM was found for `CN1Cc2cc(-c3cccc4cc(C(=O)N5CCC(F)(F)CC5)ccc34)ncc2C1=O` [compound 88] in this work.
An IC50 of less than 3 nM was found for `O=C(c1ccc2c(-c3ccn4c(=O)ccnc4c3)cccc2c1)N1CCC(F)(F)CC1` [compound 18] in this work.
An IC50 of 3 to 10 nM was found for `Cc1c(-c2cccc3cc(C(=O)N4CCC(F)(F)CC4)ccc23)ccc2ncccc12` [compound 13] in this work.
An IC50 of less than 3 nM was found for `O=C(c1ccc2c(-c3cnc4c(=O)[nH]ncc4c3)cccc2c1)N1CCC(F)(F)CC1` [compound 57] in this work.
An IC50 of 3 to 10 nM was found for `CN1Cc2cc(-c3c(F)ccc4cc(C(=O)N5CCC(F)(F)CC5)ccc34)cnc2C1=O` [compound 85] in this work.
An IC50 of less than 3 nM was found for `C[C@H]1CCCN(C(=O)c2ccc3c(-c4ccc5c(=O)[nH]ncc5c4)cccc3c2)C1` [compound 81] in this work.
An IC50 of less than 3 nM was found for `O=C(c1cnc2c(-c3cnc4c(=O)[nH]ncc4c3)cccc2c1)N1CCC(F)(F)CC1` [compound 140] in this work.
An IC50 of less than 3 nM was found for `CN1Cc2cc(-c3cccc4cc(C(=O)N5C[C@H]6CCC[C@H]6C5)ccc34)cnc2C1=O` [compound 153] in this work.
An IC50 of less than 3 nM was found for `CN1Cc2cc(-c3cccc4cc(C(=O)N5CCCC(C)(C)C5)ccc34)ccc2C1=O` [compound 8] in this work.
An IC50 of less than 3 nM was found for `Cn1nc2n(c1=O)CCN(c1cccc3cc(C(=O)N4CCCC5CC54)ccc13)C2` (centres unmarked) [compound 94] in this work.
An IC50 of less than 3 nM was found for `O=C(O)c1ccc(-c2cccc3cc(C(=O)N4CCC(F)(F)CC4)ccc23)cc1F` [compound 68] in this work.
An IC50 of less than 3 nM was found for `O=C1NCc2cc(-c3cccc4cc(C(=O)N5CCC(F)(F)CC5)ccc34)ncc21` [compound 39] in this work.
An IC50 of less than 3 nM was found for `C[C@H]1CCCN(C(=O)c2ccc3c(-c4cc5cc[nH]c(=O)c5cn4)cccc3c2)C1` [compound 47] in this work.
An IC50 of less than 3 nM was found for `O=C1NCc2cc(-c3cccc4cc(C(=O)N5CCC(F)(F)CC5)ccc34)ccc21` [compound 24] in this work.
An IC50 of less than 3 nM was found for `C[C@H]1CCCN(C(=O)c2ccc3c(-c4cnc5c(=O)[nH]ccc5c4)cccc3c2)C1` [compound 46] in this work.
An IC50 of less than 3 nM was found for `O=C(c1ccc2c(-c3ccc4c(=O)[nH]ncc4c3)cccc2c1)N1CC2(CCC2)C1` [compound 121] in this work.
An IC50 of less than 3 nM was found for `Cn1c(=O)[nH]c(=O)c2ccc(-c3cccc4cc(C(=O)N5CCC(F)(F)CC5)cnc34)cc21` [compound 159] in this work.
An IC50 of less than 3 nM was found for `C[C@@H]1CCCN(C(=O)c2ccc3c(N4CCc5c(cc[nH]c5=O)C4)cccc3c2)C1` [compound 35] in this work.
An IC50 of less than 3 nM was found for `O=C(c1ccc2c(N3CCc4c(cc[nH]c4=O)C3)cccc2c1)N1CCC(F)(F)CC1` [compound 5] in this work.
An IC50 of 3 to 10 nM was found for `Cn1nc2n(c1=O)CCN(c1nccc3cc(C(=O)N4CCC(F)(F)CC4)cc(F)c13)C2` [compound 106] in this work.
An IC50 of less than 3 nM was found for `C[C@H]1CCCN(C(=O)c2ccc3c(-c4cnc5c(c4)CN(C)C5=O)cccc3c2)C1` [compound 72] in this work.
An IC50 of less than 3 nM was found for `O=C(c1ccc2c(-c3ccc4c(=O)[nH]ncc4c3)cccc2c1)N1CCCC2CC21` (centres unmarked) [compound 124] in this work.
An IC50 of less than 3 nM was found for `Cn1ccc2cc(-c3c(F)ccc4cc(C(=O)N5CCC(F)(F)CC5)ccc34)ccc2c1=O` [compound 158] in this work.
An IC50 of less than 3 nM was found for `Cc1ccc2c(n1)CCN(c1cccc3cc(C(=O)N4CCCCC4)ccc13)C2` [compound 77] in this work.
An IC50 of 3 to 10 nM was found for `Cc1cc(C(N)=O)ccc1-c1cccc2cc(C(=O)N3CCC(F)(F)CC3)ccc12` [compound 53] in this work.
An IC50 of less than 3 nM was found for `O=C(O)c1c(F)cc(-c2cccc3cc(C(=O)N4CCC(F)(F)CC4)ccc23)cc1F` [compound 126] in this work.
An IC50 of less than 3 nM was found for `Cn1c(=O)[nH]c(=O)c2ccc(-c3cccc4cc(C(=O)N5CCC(F)(F)CC5)ccc34)cc21` [compound 33] in this work.
An IC50 of less than 3 nM was found for `Cn1ccc2c(c1=O)CCN(c1cccc3cc(C(=O)N4CCCCC4)ccc13)C2` [compound 107] in this work.
An IC50 of 3 to 10 nM was found for `O=C(c1ccc2c(-c3ccc4c(c3)CN(CC3CC(F)(F)C3)C4=O)cccc2c1)N1CCC(F)(F)CC1` [compound 40] in this work.
An IC50 of less than 3 nM was found for `CN1Cc2cc(-c3cccc4cc(C(=O)N5CCC(F)(F)CC5)ccc34)ccc2C1=O` [compound 1] in this work.
An IC50 of less than 3 nM was found for `NC(=O)c1ccc(-c2cccc3cc(C(=O)N4CCC(F)(F)CC4)ccc23)cc1F` [compound 41] in this work.
An IC50 of less than 3 nM was found for `CS(=O)(=O)CCn1ncc2cc(-c3cccc4cc(C(=O)N5CCC(F)(F)CC5)ccc34)ccc2c1=O` [compound 161] in this work.
An IC50 of less than 3 nM was found for `CN1Cc2cc(-c3cccc4cc(C(=O)N5CC=CCC5)ccc34)cnc2C1=O` [compound 152] in this work.
An IC50 of less than 3 nM was found for `O=C(c1ccc2c(N3CCc4c(cc[nH]c4=O)C3)cccc2c1)N1CCCCC1` [compound 62] in this work.
An IC50 of less than 3 nM was found for `CN1Cc2cc(-c3cccc4cc(C(=O)N5CCC(C(F)(F)F)CC5)ccc34)ccc2C1=O` [compound 48] in this work.
An IC50 of less than 3 nM was found for `CN1Cc2cc(-c3cccc4cc(C(=O)N5CCCC6CC65)ccc34)cnc2C1=O` (centres unmarked) [compound 151] in this work.
An IC50 of less than 3 nM was found for `O=C(c1cnc2c(-c3ccc4c(=O)[nH]ccc4c3)cccc2c1)N1CCC(F)(F)CC1` [compound 134] in this work.
An IC50 of less than 3 nM was found for `CN1Cc2cc(-c3cccc4cc(C(=O)N5CCC[C@H](C(F)(F)F)C5)ccc34)ccc2C1=O` [compound 25] in this work.
An IC50 of 3 to 10 nM was found for `Cn1oc2cc(-c3cccc4cc(C(=O)N5CCC(F)(F)CC5)cnc34)ccc2c1=O` [compound 148] in this work.
An IC50 of less than 3 nM was found for `CN1Cc2cc(-c3cccc4cc(C(=O)N5CCCCC5)cnc34)ccc2C1=O` [compound 29] in this work.
An IC50 of less than 3 nM was found for `CN1Cc2cc(-c3cccc4cc(C(=O)N5CCCCC5)ccc34)ccc2C1=O` [compound 37] in this work.
An IC50 of less than 3 nM was found for `COCn1ncc2cc(-c3cccc4cc(C(=O)N5CCC(F)(F)CC5)ccc34)ccc2c1=O` [compound 45] in this work.
An IC50 of less than 3 nM was found for `O=C(c1ccc2c(N3CCc4c(cc[nH]c4=O)C3)cccc2c1)N1CCC[C@@H](F)C1` [compound 23] in this work.
An IC50 of 3 to 10 nM was found for `O=C(c1ccc2c(-c3ccc4c[nH]c(=O)cc4c3)cccc2c1)N1CCC(F)(F)CC1` [compound 114] in this work.
An IC50 of less than 3 nM was found for `Cn1ccc2cc(-c3cccc4cc(C(=O)N5CCC(F)(F)CC5)ccc34)ccc2c1=O` [compound 116] in this work.
An IC50 of 3 to 10 nM was found for `Cn1ccc2cc(-c3cccc4cc(C(=O)N5CCC(F)(F)CC5)cnc34)cnc2c1=O` [compound 146] in this work.
An IC50 of no less than 10 nM was found for `O=C(c1ccc2cc(-c3ccc4c(=O)[nH]ccc4c3)ccc2c1)N1CCC(F)(F)CC1` [compound 89] in this work.
An IC50 of less than 3 nM was found for `Cc1n[nH]c(=O)c2ccc(-c3cccc4cc(C(=O)N5CCC(F)(F)CC5)cnc34)cc12` [compound 165] in this work.
An IC50 of less than 3 nM was found for `O=C1NCc2cc(-c3cccc4cc(C(=O)N5CCC(F)(F)CC5)ccc34)cnc21` [compound 82] in this work.
An IC50 of no less than 10 nM was found for `O=C1NC(=O)N2CCN(c3cccc4cc(C(=O)N5CCCCC5)ccc34)CC12` (centres unmarked) [compound 7] in this work.
An IC50 of less than 3 nM was found for `C[C@H]1CCCN(C(=O)c2ccc3c(N4CCn5c(nn(C)c5=O)C4)cccc3c2)C1` [compound 103] in this work.

From US12304897B2, “15-PGDH inhibitors” (KYORIN PHARMACEUTICAL CO., LTD., priority 2019, dated 2025)
